# Experimental data: patent US12187723B2 (BRISTOL-MYERS SQUIBB COMPANY, priority 2019, dated 2025)
# Target: T1, human TLR8 (Homo sapiens, UniProt Q9NR97)
# T1 construct: host or cells: HEK-Blue cells
# T1 sequence (Q9NR97 27-1041): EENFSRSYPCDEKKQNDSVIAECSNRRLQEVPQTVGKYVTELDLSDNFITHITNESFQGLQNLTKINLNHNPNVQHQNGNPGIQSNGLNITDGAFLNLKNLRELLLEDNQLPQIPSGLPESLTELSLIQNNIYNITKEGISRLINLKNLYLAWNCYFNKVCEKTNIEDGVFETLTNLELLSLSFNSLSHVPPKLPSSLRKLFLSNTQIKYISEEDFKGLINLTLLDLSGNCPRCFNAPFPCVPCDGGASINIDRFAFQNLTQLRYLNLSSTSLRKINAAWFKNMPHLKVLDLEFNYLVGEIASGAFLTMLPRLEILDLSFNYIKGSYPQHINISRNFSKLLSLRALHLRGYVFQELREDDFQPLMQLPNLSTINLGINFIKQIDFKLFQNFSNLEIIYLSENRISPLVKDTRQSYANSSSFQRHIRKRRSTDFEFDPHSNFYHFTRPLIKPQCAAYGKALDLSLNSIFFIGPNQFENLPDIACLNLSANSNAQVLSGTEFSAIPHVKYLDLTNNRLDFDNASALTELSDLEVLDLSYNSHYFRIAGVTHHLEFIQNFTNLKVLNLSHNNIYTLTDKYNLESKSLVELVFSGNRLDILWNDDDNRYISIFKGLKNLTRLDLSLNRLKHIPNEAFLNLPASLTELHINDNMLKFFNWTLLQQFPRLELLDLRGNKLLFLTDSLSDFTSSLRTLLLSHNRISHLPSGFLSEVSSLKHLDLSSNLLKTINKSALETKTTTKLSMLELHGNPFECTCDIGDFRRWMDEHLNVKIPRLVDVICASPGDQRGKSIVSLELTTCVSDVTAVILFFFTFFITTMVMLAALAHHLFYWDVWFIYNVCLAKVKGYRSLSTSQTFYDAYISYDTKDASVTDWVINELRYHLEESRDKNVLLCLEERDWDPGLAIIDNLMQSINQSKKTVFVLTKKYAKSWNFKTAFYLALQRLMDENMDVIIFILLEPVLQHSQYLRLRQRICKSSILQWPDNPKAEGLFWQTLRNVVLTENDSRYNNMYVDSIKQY
# Assay: TLR8 inhibition reporter assay (HEK-Blue SEAP)
# Type: cell-based
# Conditions: HEK-Blue cells overexpressing human TLR8, R848 15.9 μM, 22 hour incubation
# Summary of the method: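 Human TLR7/8/9 HEK-Blue reporter lines; dose range 0.05 nM–50 μM; 30 min RT preincubation; stimulus gardiquimod 7.5 μM / R848 15.9 μM / ODN2006 5 nM respectively; 22 h, 37 °C; SEAP detected colorimetrically.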
row,Structure (SMILES),IC50 [µM]
1,"COc1cc(-c2cc3[nH]c(=O)n(C4CCN(C)CC4)c3cc2C)cn2ncnc12 [Example 1, 5-(8-methoxy-[1,2,4]triazolo[1,5-a]pyridin-6-yl)-6-methyl-1-(1-methylpiperidin-4-yl)-1,3-dihydro-2H-benzo[d]imidazol-2-one]",0.0541
2,"Cc1cc2c(cc1-c1cc(C)c3ncnn3c1)[nH]c(=O)n2C1CCN(C(C)C)CC1 [Example 2, 1-(1-isopropylpiperidin-4-yl)-6-methyl-5-(8-methyl-[1,2,4]triazolo[1,5-a]pyridin-6-yl)-1,3-dihydro-2H-benzo[d]imidazol-2-one]",0.107
3,"Cc1cc2c(cc1-c1cc(C)c3ncnn3c1)[nH]c(=O)n2[C@H]1CC[C@@H](NCC(C)(C)C)CC1 [Example 32, 6-methyl-5-(8-methyl-[1,2,4]triazolo[1,5-a]pyridin-6-yl)-1-((1s,4s)-4-(neopentylamino)cyclohexyl)-1,3-dihydro-2H-benzo[d]imidazol-2-one]",0.00061
4,"Cc1cc2c(cc1-c1cc(C)c3ncnn3c1)[nH]c(=O)n2[C@H]1CC[C@@H](NCc2ncn(C)n2)CC1 [Example 33, 6-methyl-1-((1s,4s)-4-(((1-methyl-1H-1,2,4-triazol-3-yl)methyl)amino)cyclohexyl)-5-(8-methyl-[1,2,4]triazolo[1,5-a]pyridin-6-yl)-1,3-dihydro-2H-benzo[d]imidazol-2-one]",0.0109
5,"CCC(C)N[C@H]1CC[C@@H](n2c(=O)[nH]c3cc(-c4cc(C)c5ncnn5c4)c(C)cc32)CC1 (stereo partly drawn) [Example 34, 1-((1s,4s)-4-(sec-butylamino)cyclohexyl)-6-methyl-5-(8-methyl-[1,2,4]triazolo[1,5-a]pyridin-6-yl)-1,3-dihydro-2H-benzo[d]imidazol-2-one]",0.00465
6,"Cc1cc2c(cc1-c1cc(C)c3ncnn3c1)[nH]c(=O)n2[C@@H]1CCCN(Cc2ncn(C)n2)C1 [Example 35, (R)-6-methyl-1-(1-((1-methyl-1H-1,2,4-triazol-3-yl)methyl)piperidin-3-yl)-5-(8-methyl-[1,2,4]triazolo[1,5-a]pyridin-6-yl)-1,3-dihydro-2H-benzo[d]imidazol-2-one]",0.22
7,"COc1ncc(CN2CCC[C@H](n3c(=O)[nH]c4cc(-c5cc(C)c6ncnn6c5)c(C)cc43)C2)cn1 [Example 36, (S)-1-(1-((2-methoxypyrimidin-5-yl)methyl)piperidin-3-yl)-6-methyl-5-(8-methyl-[1,2,4]triazolo[1,5-a]pyridin-6-yl)-1,3-dihydro-2H-benzo[d]imidazol-2-one]",0.0375
8,"Cc1cc2c(cc1-c1cc(C)c3ncnn3c1)[nH]c(=O)n2[C@@H]1CCCN(CC2CC2)C1 [Example 37, (R)-1-(1-(cyclopropylmethyl)piperidin-3-yl)-6-methyl-5-(8-methyl-[1,2,4]triazolo[1,5-a]pyridin-6-yl)-1,3-dihydro-2H-benzo[d]imidazol-2-one]",0.0287
9,"Cc1cc2c(cc1-c1cc(C)c3ncnn3c1)[nH]c(=O)n2[C@@H]1CCCN(CCCC(F)(F)F)C1 [Example 39, (R)-6-methyl-5-(8-methyl-[1,2,4]triazolo[1,5-a]pyridin-6-yl)-1-(1-(4,4,4-trifluorobutyl)piperidin-3-yl)-1,3-dihydro-2H-benzo[d]imidazol-2-one]",0.0493
10,"Cc1cc2c(cc1-c1cc(C)c3ncnn3c1)[nH]c(=O)n2[C@@H]1CCCN(CC(C)C)C1 [Example 40, (R)-1-(1-isobutylpiperidin-3-yl)-6-methyl-5-(8-methyl-[1,2,4]triazolo[1,5-a]pyridin-6-yl)-1,3-dihydro-2H-benzo[d]imidazol-2-one]",0.0196
11,"Cc1cc2c(cc1-c1cc(C)c3ncnn3c1)[nH]c(=O)n2[C@@H]1CCCN(CC2CCOCC2)C1 [Example 41, (R)-6-methyl-5-(8-methyl-[1,2,4]triazolo[1,5-a]pyridin-6-yl)-1-(1-((tetrahydro-2H-pyran-4-yl)methyl)piperidin-3-yl)-1,3-dihydro-2H-benzo[d]imidazol-2-one]",0.0271
12,"CCCN1CCC[C@@H](n2c(=O)[nH]c3cc(-c4cc(C)c5ncnn5c4)c(C)cc32)C1 [Example 42, (R)-6-methyl-5-(8-methyl-[1,2,4]triazolo[1,5-a]pyridin-6-yl)-1-(1-propylpiperidin-3-yl)-1,3-dihydro-2H-benzo[d]imidazol-2-one]",0.0295
13,"Cc1cc2c(cc1-c1cc(C)c3ncnn3c1)[nH]c(=O)n2[C@@H]1CCCN(CC2CCOC2)C1 (stereo partly drawn) [Example 43, 6-methyl-5-(8-methyl-[1,2,4]triazolo[1,5-a]pyridin-6-yl)-1-((3R)-1-((tetrahydrofuran-3-yl)methyl)piperidin-3-yl)-1,3-dihydro-2H-benzo[d]imidazol-2-one]",0.0577
14,"Cc1cc2c(cc1-c1cc(C)c3ncnn3c1)[nH]c(=O)n2[C@@H]1CCCN(CCC(C)(C)C)C1 [Example 44, (R)-1-(1-(3,3-dimethylbutyl)piperidin-3-yl)-6-methyl-5-(8-methyl-[1,2,4]triazolo[1,5-a]pyridin-6-yl)-1,3-dihydro-2H-benzo[d]imidazol-2-one]",0.049
15,"CCC(CC)CN1CCC[C@@H](n2c(=O)[nH]c3cc(-c4cc(C)c5ncnn5c4)c(C)cc32)C1 [Example 45, (R)-1-(1-(2-ethylbutyl)piperidin-3-yl)-6-methyl-5-(8-methyl-[1,2,4]triazolo[1,5-a]pyridin-6-yl)-1,3-dihydro-2H-benzo[d]imidazol-2-one]",0.0481
16,"Cc1cc2c(cc1-c1cc(C)c3ncnn3c1)[nH]c(=O)n2[C@@H]1CCCN(Cc2cccnc2)C1 [Example 46, (R)-6-methyl-5-(8-methyl-[1,2,4]triazolo[1,5-a]pyridin-6-yl)-1-(1-(pyridin-3-ylmethyl)piperidin-3-yl)-1,3-dihydro-2H-benzo[d]imidazol-2-one]",0.0424
17,"Cc1cc2c(cc1-c1cc(C)c3ncnn3c1)[nH]c(=O)n2[C@@H]1CCCN(CC2CCCC2)C1 [Example 47, (R)-1-(1-(cyclopentylmethyl)piperidin-3-yl)-6-methyl-5-(8-methyl-[1,2,4]triazolo[1,5-a]pyridin-6-yl)-1,3-dihydro-2H-benzo[d]imidazol-2-one]",0.0328
18,"COc1cc(-c2cc3[nH]c(=O)n([C@H]4CC[C@@H](N(C)C)CC4)c3cc2C)cn2ncnc12 [Example 48, 1-((1s,4s)-4-(dimethylamino)cyclohexyl)-5-(8-methoxy-[1,2,4]triazolo[1,5-a]pyridin-6-yl)-6-methyl-1,3-dihydro-2H-benzo[d]imidazol-2-one]",0.00533
19,"COc1cc(-c2cc3[nH]c(=O)n([C@H]4CC[C@@H](NC5CCOCC5)CC4)c3cc2C)cn2ncnc12 [Example 49, 5-(8-methoxy-[1,2,4]triazolo[1,5-a]pyridin-6-yl)-6-methyl-1-((1s,4s)-4-((tetrahydro-2H-pyran-4-yl)amino)cyclohexyl)-1,3-dihydro-2H-benzo[d]imidazol-2-one]",0.00326
20,"COc1cc(-c2cc3[nH]c(=O)n([C@H]4CC[C@@H](NC(C)C)CC4)c3cc2C)cn2ncnc12 [Example 50, 1-((1s,4s)-4-(isopropylamino)cyclohexyl)-5-(8-methoxy-[1,2,4]triazolo[1,5-a]pyridin-6-yl)-6-methyl-1,3-dihydro-2H-benzo[d]imidazol-2-one]",0.00486
21,"COc1cc(-c2cc3[nH]c(=O)n([C@@H]4CCCN(C)C4)c3cc2C)cn2ncnc12 [Example 51, (R)-5-(8-methoxy-[1,2,4]triazolo[1,5-a]pyridin-6-yl)-6-methyl-1-(1-methylpiperidin-3-yl)-1,3-dihydro-2H-benzo[d]imidazol-2-one]",0.021
22,"CCN1CCC[C@@H](n2c(=O)[nH]c3cc(-c4cc(OC)c5ncnn5c4)c(C)cc32)C1 [Example 52, (R)-1-(1-ethylpiperidin-3-yl)-5-(8-methoxy-[1,2,4]triazolo[1,5-a]pyridin-6-yl)-6-methyl-1,3-dihydro-2H-benzo[d]imidazol-2-one]",0.0257
23,"COc1cc(-c2cc3[nH]c(=O)n([C@@H]4CCCN(C(C)C)C4)c3cc2C)cn2ncnc12 [Example 53, (R)-1-(1-isopropylpiperidin-3-yl)-5-(8-methoxy-[1,2,4]triazolo[1,5-a]pyridin-6-yl)-6-methyl-1,3-dihydro-2H-benzo[d]imidazol-2-one]",0.0359
24,"CCCN1CCC[C@@H](n2c(=O)[nH]c3cc(-c4cc(OC)c5ncnn5c4)c(C)cc32)C1 [Example 54, (R)-5-(8-methoxy-[1,2,4]triazolo[1,5-a]pyridin-6-yl)-6-methyl-1-(1-propylpiperidin-3-yl)-1,3-dihydro-2H-benzo[d]imidazol-2-one]",0.024
